pEC50: −log10 of the molar value.
Biological target: T1, human opioid δ receptor (Homo sapiens, UniProt P41143)
T1 construct: host or cells: CHO cells
Experiment: Opioid receptor function test (agonist activity, Lance Ultra cAMP kit), δ receptor
Format: cell-based
Conditions: for Emax: maximum reaction relative to control drug SNC 80 taken as 100%
Text: Opioid Receptor Function Test
Functional activity of the compound provided by the present invention on μ, δ, and κ opioid receptors was examined.
Method: Using a Lance Ultra cAMP kit (Perkin Elmer), the functional activity was examined by a predetermined method. In evaluation of agonist activity, CHO cells expressing each of human opioid receptors (δ, μ, and κ: accession numbers and catalog numbers are described below) were reacted with a test compound in an assay buffer (1× HBSS, […], pH 7.4, […] isobutylmethylxanthine (IBMX), 7.5% BSA) in the presence of 10 μM forskolin for 30 minutes. Subsequently, a cAMP detection reagent in the kit was added. One hour later, time-resolved fluorescence measurement was performed using an EnVision plate reader (Perkin Elmer). The test compound and each control drug (δ: SNC 80, μ: DAMGO, κ: U-69593) were evaluated in a concentration range of 10^−12 to 10^−5 M. A dose reaction curve of the test compound was determined from a fluorescence value at 665 nm, and an EC50 value and an Emax value were calculated. The Emax value was determined as a ratio of a maximum reaction of the test compound when a maximum reaction of each control drug was taken as 100%.

T1 sequence (P41143 whole entry): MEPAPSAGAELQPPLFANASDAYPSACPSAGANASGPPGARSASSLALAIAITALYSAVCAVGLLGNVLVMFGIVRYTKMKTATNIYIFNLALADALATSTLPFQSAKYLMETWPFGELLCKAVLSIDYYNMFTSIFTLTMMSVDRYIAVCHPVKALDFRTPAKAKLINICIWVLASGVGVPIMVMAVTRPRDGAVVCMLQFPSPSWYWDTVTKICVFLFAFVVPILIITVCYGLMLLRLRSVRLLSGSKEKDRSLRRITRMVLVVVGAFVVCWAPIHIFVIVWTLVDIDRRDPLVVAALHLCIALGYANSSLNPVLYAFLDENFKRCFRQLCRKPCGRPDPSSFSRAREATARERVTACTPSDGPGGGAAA

Row | SMILES | pEC50 | Emax [%]
1 | Cc1nn(C2CCCC2)c2c1C[C@@]1(O)[C@H]3Cc4ccc(O)cc4[C@@]1(CCN3CC1CC1)C2 [Compound 86, (6R,6aS,11aR)-10-cyclopentyl-14-(cyclopropylmethyl)-8-methyl-5,6,10,11-tetrahydro-6,11a-(epiminoethano)naphtho[2,1-f]indazole-2,6a(7H)-diol] | 9.92 | 101
2 | Cc1nn(C2CCCCC2)c2c1C[C@@]1(O)[C@H]3Cc4ccc(O)cc4[C@@]1(CCN3CC1CC1)C2 [Compound 32, (6R,6aS,11aR)-10-cyclohexyl-14-(cyclopropylmethyl)-8-methyl-5,6,10,11-tetrahydro-6,11a-(epiminoethano)naphtho[2,1-f]indazole-2,6a(7H)-diol] | 10.05 | 111
3 | Cc1nn(C2CCOCC2)c2c1C[C@@]1(O)[C@H]3Cc4ccc(O)cc4[C@@]1(CCN3CC1CC1)C2 [Compound 88, (6R,6aS,11aR)-14-(cyclopropylmethyl)-8-methyl-10-(tetrahydro-2H-pyran-4-yl)-5,6,10,11-tetrahydro-6,11a-(epiminoethano)naphtho[2,1-f]indazole-2,6a(7H)-diol] | 10.07 | 113
4 | Cc1nn(CC2CC2)c2c1C[C@@]1(O)[C@H]3Cc4ccc(O)cc4[C@@]1(CCN3CC1CC1)C2 [Compound 45, (6R,6aS,11aR)-10,14-bis(cyclopropylmethyl)-8-methyl-5,6,10,11-tetrahydro-6,11a-(epiminoethano)naphtho[2,1-f]indazole-2,6a(7H)-diol] | 9.12 | 72
5 | Cc1nn(-c2cccnc2)c2c1C[C@@]1(O)[C@H]3Cc4ccc(O)cc4[C@@]1(CCN3CC1CC1)C2 [Compound 49, (6R,6aS,11aR)-14-(cyclopropylmethyl)-8-methyl-10-(pyridin-3-yl)-5,6,10,11-tetrahydro-6,11a-(epiminoethano)naphtho[2,1-f]indazole-2,6a(7H)-diol] | 9.30 | 73
6 | Cc1nn(C2CCC2)c2c1C[C@@]1(O)[C@H]3Cc4ccc(O)cc4[C@@]1(CCN3CC1CC1)C2 [Compound 84, (6R,6aS,11aR)-10-cyclobutyl-14-(cyclopropylmethyl)-8-methyl-5,6,10,11-tetrahydro-6,11a-(epiminoethano)naphtho[2,1-f]indazole-2,6a(7H)-diol] | 9.47 | 95
7 | Cc1[nH]nc2c1C[C@@]1(O)[C@H]3Cc4ccc(O)cc4[C@@]1(CCN3CC1CC1)C2 [34, 35] | 8.89 | 42
8 | Cc1c2c(nn1CC1CCCCC1)C[C@]13CCN(CC4CC4)[C@H](Cc4ccc(O)cc41)[C@]3(O)C2 [Compound 42, (6R,6aS,11aR)-9-(cyclohexylmethyl)-14-(cyclopropylmethyl)-8-methyl-5,6,9,11-tetrahydro-6,11a-(epiminoethano)naphtho[2,1-f]indazole-2,6a(7H)-diol] | 9.00 | 90
9 | Cc1nn(-c2nccs2)c2c1C[C@@]1(O)[C@H]3Cc4ccc(O)cc4[C@@]1(CCN3CC1CC1)C2 [Compound 51, (6R,6aS,11aR)-14-(cyclopropylmethyl)-8-methyl-10-(thiazol-2-yl)-5,6,10,11-tetrahydro-6,11a-(epiminoethano)naphtho[2,1-f]indazole-2,6a(7H)-diol] | 9.03 | 54
10 | Cc1nn(-c2ccccn2)c2c1C[C@@]1(O)[C@H]3Cc4ccc(O)cc4[C@@]1(CCN3CC1CC1)C2 [Compound 27, (6R,6aS,11aR)-14-(cyclopropylmethyl)-8-methyl-10-(pyridin-2-yl)-5,6,10,11-tetrahydro-6,11a-(epiminoethano)naphtho[2,1-f]indazole-2,6a(7H)-diol] | 9.08 | 51
11 | Cc1c2c(nn1CC1CC1)C[C@]13CCN(CC4CC4)[C@H](Cc4ccc(O)cc41)[C@]3(O)C2 [Compound 46, (6R,6aS,11aR)-9,14-bis(cyclopropylmethyl)-8-methyl-5,6,9,11-tetrahydro-6,11a-(epiminoethano)naphtho[2,1-f]indazole-2,6a(7H)-diol] | 9.77 | 105
